Results reported in US20250073255A1, “USE OF FA-TYPE LIPID COMPOUNDS IN PREPARATION OF NUCLEIC ACID DELIVERY REAGENT AND RELATED PRODUCT” (BEIJING BAISHIKANG PHARMACEUTICAL TECHNOLOGY (BSJPHARMA) …, priority 2021, published 2025).

System: C57BL/6 male mice
Experiment: In vivo delivery study of lipid nucleic acid mixture (oral gavage, RT-qPCR of PGY-sRNA-26 in tissues)
Set-up: species or system mouse
Conditions: for oral delivery of single-stranded sRNA nucleic acids into mouse blood / oral delivery of single-stranded sRNA nucleic acids into mouse brain tissue / oral delivery of single-stranded sRNA nucleic acids into mouse femur / oral delivery of single-stranded sRNA nucleic acids into mouse heart tissue / oral delivery of single-stranded sRNA nucleic acids into mouse intestinal tissue / oral delivery of single-stranded sRNA nucleic acids into mouse kidney tissue / oral delivery of single-stranded sRNA nucleic acids into mouse liver tissue / oral delivery of single-stranded sRNA nucleic acids into mouse lung tissue / oral delivery of single-stranded sRNA nucleic acids into mouse pancreatic tissue / oral delivery of single-stranded sRNA nucleic acids into mouse spleen tissue / oral delivery of single-stranded sRNA nucleic acids into mouse stomach tissue: 100 μg lipid:10 nmol PGY-sRNA-26, sampled after 12 hours; for oral delivery of single-stranded sRNA nucleic acids into mouse heart tissue: vs free uptake group; for oral delivery of single-stranded sRNA nucleic acids into mouse intestinal tissue: intestine; for oral delivery of single-stranded sRNA nucleic acids into mouse pancreatic tissue: pancreas; for overall delivery efficacy: delivering nucleic acids into each tissue and blood tested: 100 μg lipid:10 nmol PGY-sRNA-26, all tissues and blood tested
How it was run: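 Stem-loop RT and SYBR qPCR, normalized to U6, measured PGY-sRNA-26 in blood and organs 12 h after gavage. Dosing was 10 nmol sRNA with 100 μg lipid, pre-mixed and heated 15 min at 90 °C, in 12-h-fasted mice, against saline and free-sRNA groups.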

Compound: C=C(C)CCOC(=O)CCCCCCCCCCCCCCCCCCC [Lipid 814, 3-methylbut-3-enyl icosanoate]
- oral delivery of single-stranded sRNA nucleic acids into mouse blood: can effectively orally deliver
- oral delivery of single-stranded sRNA nucleic acids into mouse brain tissue: can effectively orally deliver
- oral delivery of single-stranded sRNA nucleic acids into mouse femur: can effectively orally deliver
- oral delivery of single-stranded sRNA nucleic acids into mouse heart tissue: can effectively orally deliver
- oral delivery of single-stranded sRNA nucleic acids into mouse intestinal tissue: can effectively orally deliver
- oral delivery of single-stranded sRNA nucleic acids into mouse kidney tissue: can effectively orally deliver
- oral delivery of single-stranded sRNA nucleic acids into mouse liver tissue: can effectively orally deliver
- oral delivery of single-stranded sRNA nucleic acids into mouse lung tissue: can effectively orally deliver
- oral delivery of single-stranded sRNA nucleic acids into mouse pancreatic tissue: can effectively orally deliver
- oral delivery of single-stranded sRNA nucleic acids into mouse spleen tissue: can effectively orally deliver
- oral delivery of single-stranded sRNA nucleic acids into mouse stomach tissue: can effectively orally deliver

Compound: CCCCCCCCCCCCCCCCCC(N)=O [Lipid 601, octadecanamide]
- overall delivery efficacy: delivering nucleic acids into each tissue and blood tested: best delivery efficacy
- oral delivery of single-stranded sRNA nucleic acids into mouse blood: can effectively orally deliver
- oral delivery of single-stranded sRNA nucleic acids into mouse brain tissue: can effectively orally deliver
- oral delivery of single-stranded sRNA nucleic acids into mouse femur: can effectively orally deliver
- oral delivery of single-stranded sRNA nucleic acids into mouse heart tissue: can effectively orally deliver
- oral delivery of single-stranded sRNA nucleic acids into mouse intestinal tissue: can effectively orally deliver
- oral delivery of single-stranded sRNA nucleic acids into mouse kidney tissue: can effectively orally deliver
- oral delivery of single-stranded sRNA nucleic acids into mouse liver tissue: can effectively orally deliver
- oral delivery of single-stranded sRNA nucleic acids into mouse lung tissue: can effectively orally deliver
- oral delivery of single-stranded sRNA nucleic acids into mouse spleen tissue: can effectively orally deliver
- oral delivery of single-stranded sRNA nucleic acids into mouse stomach tissue: can effectively orally deliver

Compound: C/C(=C\C(=O)O)C(=O)O [Lipid 606, (E)-2-methylbut-2-enedioic acid]
- oral delivery of single-stranded sRNA nucleic acids into mouse blood: can effectively orally deliver
- oral delivery of single-stranded sRNA nucleic acids into mouse femur: can effectively orally deliver
- oral delivery of single-stranded sRNA nucleic acids into mouse liver tissue: can effectively orally deliver

Compound: CCCCCCCCCC=O [Lipid 615]
- oral delivery of single-stranded sRNA nucleic acids into mouse blood: can effectively orally deliver
- oral delivery of single-stranded sRNA nucleic acids into mouse brain tissue: can effectively orally deliver
- oral delivery of single-stranded sRNA nucleic acids into mouse femur: can effectively orally deliver
- oral delivery of single-stranded sRNA nucleic acids into mouse intestinal tissue: can effectively orally deliver
- oral delivery of single-stranded sRNA nucleic acids into mouse liver tissue: can effectively orally deliver
- oral delivery of single-stranded sRNA nucleic acids into mouse lung tissue: can effectively orally deliver
- oral delivery of single-stranded sRNA nucleic acids into mouse spleen tissue: can effectively orally deliver
- oral delivery of single-stranded sRNA nucleic acids into mouse stomach tissue: can effectively orally deliver

Compound: CC1(O)CCOC(=O)C1 (stereo not shown) [Lipid 603, 4-hydroxy-4-meth-yl-oxan-2-one]
- overall delivery efficacy: delivering nucleic acids into each tissue and blood tested: best delivery efficacy
- oral delivery of single-stranded sRNA nucleic acids into mouse blood: can effectively orally deliver
- oral delivery of single-stranded sRNA nucleic acids into mouse brain tissue: can effectively orally deliver
- oral delivery of single-stranded sRNA nucleic acids into mouse femur: can effectively orally deliver
- oral delivery of single-stranded sRNA nucleic acids into mouse heart tissue: can effectively orally deliver
- oral delivery of single-stranded sRNA nucleic acids into mouse intestinal tissue: can effectively orally deliver
- oral delivery of single-stranded sRNA nucleic acids into mouse kidney tissue: can effectively orally deliver
- oral delivery of single-stranded sRNA nucleic acids into mouse liver tissue: can effectively orally deliver
- oral delivery of single-stranded sRNA nucleic acids into mouse lung tissue: can effectively orally deliver
- oral delivery of single-stranded sRNA nucleic acids into mouse spleen tissue: can effectively orally deliver
- oral delivery of single-stranded sRNA nucleic acids into mouse stomach tissue: can effectively orally deliver

Compound: CCCC(=O)CC(=O)N[C@H]1CCOC1=O [Lipid 622, 3-oxo-N-[(3S)-2-oxooxolan-3-yl]hexanamide]
- oral delivery of single-stranded sRNA nucleic acids into mouse blood: can effectively orally deliver
- oral delivery of single-stranded sRNA nucleic acids into mouse brain tissue: can effectively orally deliver
- oral delivery of single-stranded sRNA nucleic acids into mouse femur: can effectively orally deliver
- oral delivery of single-stranded sRNA nucleic acids into mouse intestinal tissue: can effectively orally deliver
- oral delivery of single-stranded sRNA nucleic acids into mouse liver tissue: can effectively orally deliver
- oral delivery of single-stranded sRNA nucleic acids into mouse lung tissue: can effectively orally deliver
- oral delivery of single-stranded sRNA nucleic acids into mouse spleen tissue: can effectively orally deliver
- oral delivery of single-stranded sRNA nucleic acids into mouse stomach tissue: can effectively orally deliver

Compound: CC/C=C/CCO [Lipid 526]
- overall delivery efficacy: delivering nucleic acids into each tissue and blood tested: best delivery efficacy
- oral delivery of single-stranded sRNA nucleic acids into mouse blood: can effectively orally deliver
- oral delivery of single-stranded sRNA nucleic acids into mouse brain tissue: can effectively orally deliver
- oral delivery of single-stranded sRNA nucleic acids into mouse femur: can effectively orally deliver
- oral delivery of single-stranded sRNA nucleic acids into mouse heart tissue: can effectively orally deliver
- oral delivery of single-stranded sRNA nucleic acids into mouse intestinal tissue: can effectively orally deliver
- oral delivery of single-stranded sRNA nucleic acids into mouse kidney tissue: can effectively orally deliver
- oral delivery of single-stranded sRNA nucleic acids into mouse liver tissue: can effectively orally deliver
- oral delivery of single-stranded sRNA nucleic acids into mouse lung tissue: can effectively orally deliver
- oral delivery of single-stranded sRNA nucleic acids into mouse spleen tissue: can effectively orally deliver
- oral delivery of single-stranded sRNA nucleic acids into mouse stomach tissue: can effectively orally deliver

Compound: CCCCCCCCCCCCCCCO [Lipid 609, pentadecan-1-ol]
- oral delivery of single-stranded sRNA nucleic acids into mouse brain tissue: can effectively orally deliver
- oral delivery of single-stranded sRNA nucleic acids into mouse femur: can effectively orally deliver
- oral delivery of single-stranded sRNA nucleic acids into mouse heart tissue: can effectively orally deliver
- oral delivery of single-stranded sRNA nucleic acids into mouse kidney tissue: can effectively orally deliver
- oral delivery of single-stranded sRNA nucleic acids into mouse liver tissue: can effectively orally deliver
- oral delivery of single-stranded sRNA nucleic acids into mouse lung tissue: can effectively orally deliver
- oral delivery of single-stranded sRNA nucleic acids into mouse stomach tissue: can effectively orally deliver

Compound: CCCCCC/C=C\CCCCCCCC(=O)OC(CC)C(C)CCC (stereo not shown) [Lipid 827, 4-methylheptan-3-yl (Z)-hexadec-9-enoate]
- oral delivery of single-stranded sRNA nucleic acids into mouse blood: can effectively orally deliver
- oral delivery of single-stranded sRNA nucleic acids into mouse brain tissue: can effectively orally deliver
- oral delivery of single-stranded sRNA nucleic acids into mouse femur: can effectively orally deliver
- oral delivery of single-stranded sRNA nucleic acids into mouse heart tissue: can effectively orally deliver
- oral delivery of single-stranded sRNA nucleic acids into mouse intestinal tissue: can effectively orally deliver
- oral delivery of single-stranded sRNA nucleic acids into mouse kidney tissue: can effectively orally deliver
- oral delivery of single-stranded sRNA nucleic acids into mouse liver tissue: can effectively orally deliver
- oral delivery of single-stranded sRNA nucleic acids into mouse lung tissue: can effectively orally deliver
- oral delivery of single-stranded sRNA nucleic acids into mouse pancreatic tissue: can effectively orally deliver
- oral delivery of single-stranded sRNA nucleic acids into mouse spleen tissue: can effectively orally deliver
- oral delivery of single-stranded sRNA nucleic acids into mouse stomach tissue: can effectively orally deliver

Compound: CC/C=C\C/C=C\C/C=C\CCCCCCCC(=O)OCCCCCCCCCCCCCC [Lipid 824, tetradecyl (9Z,12Z,15Z)-octadeca-9,12,15-trienoate]
- oral delivery of single-stranded sRNA nucleic acids into mouse blood: can effectively orally deliver
- oral delivery of single-stranded sRNA nucleic acids into mouse brain tissue: can effectively orally deliver
- oral delivery of single-stranded sRNA nucleic acids into mouse femur: can effectively orally deliver
- oral delivery of single-stranded sRNA nucleic acids into mouse heart tissue: can effectively orally deliver
- oral delivery of single-stranded sRNA nucleic acids into mouse intestinal tissue: can effectively orally deliver
- oral delivery of single-stranded sRNA nucleic acids into mouse kidney tissue: can effectively orally deliver
- oral delivery of single-stranded sRNA nucleic acids into mouse liver tissue: can effectively orally deliver
- oral delivery of single-stranded sRNA nucleic acids into mouse lung tissue: can effectively orally deliver
- oral delivery of single-stranded sRNA nucleic acids into mouse pancreatic tissue: can effectively orally deliver
- oral delivery of single-stranded sRNA nucleic acids into mouse spleen tissue: can effectively orally deliver
- oral delivery of single-stranded sRNA nucleic acids into mouse stomach tissue: can effectively orally deliver

Compound: CCCCCC/C=C\CCCCCCCC(=O)OCCCCCCCCCCCCC [Lipid 813, tridecyl (Z)-hexadec-9-enoate]
- oral delivery of single-stranded sRNA nucleic acids into mouse blood: can effectively orally deliver
- oral delivery of single-stranded sRNA nucleic acids into mouse brain tissue: can effectively orally deliver
- oral delivery of single-stranded sRNA nucleic acids into mouse femur: can effectively orally deliver
- oral delivery of single-stranded sRNA nucleic acids into mouse heart tissue: can effectively orally deliver
- oral delivery of single-stranded sRNA nucleic acids into mouse intestinal tissue: can effectively orally deliver
- oral delivery of single-stranded sRNA nucleic acids into mouse kidney tissue: can effectively orally deliver
- oral delivery of single-stranded sRNA nucleic acids into mouse liver tissue: can effectively orally deliver
- oral delivery of single-stranded sRNA nucleic acids into mouse lung tissue: can effectively orally deliver
- oral delivery of single-stranded sRNA nucleic acids into mouse pancreatic tissue: can effectively orally deliver
- oral delivery of single-stranded sRNA nucleic acids into mouse spleen tissue: can effectively orally deliver
- oral delivery of single-stranded sRNA nucleic acids into mouse stomach tissue: can effectively orally deliver
